What was measured:
Bcl-2 = Bcl-2 (Homo sapiens (Human), UniProt P10415); assay: Bcl-2 competition binding (fluorescence polarization) assay; conditions: fluorescein labeled BH3 peptide 15 nM, Bcl-2 protein 30 nM, 3 hours of incubation at room temperature
Method: Biological Example 1: Bcl-2 Competition Binding (Fluorescence Polarization) Assay
The fluorescence-labeled 23 amino acid peptide BH3 was purchased from CalBiochem ([…]). […] This binding assay was performed in 96-well plate and with each assay contained 15 and 30 nM of labeled peptide and purified Bcl-2 protein (purchased from R&D Systems, Inc). The assay buffer contained 20 mM Hepes (pH 7.0), 50 mM KCl, 5 mM MgCl2, 20 mM Na2MoO4, 0.1 mg/mi Bovine Gamma Globulin and 0.01% NP40. Compounds were diluted in DMS0 and added to the final assay with concentration range from 20 μM to 2 nM. The polarization degree (mP) value was determined by BioTek Synergy II with background subtraction after 3 hours of incubation at room temperature. IC50 was calculated using Prism software with sigmoidal dose-response curve fitting. ABT-737 was used as reference compound. Such assays, carried out with a range of doses of test compounds, allowed the determination of an approximate IC50 value.

[1] = tested on: BCL-2-dependent acute lymphoblastic leukemia (ALL) cell line RS4; 11 with G101V mutation; assay: In vitro anti-proliferation assay (ATPlite) in RS4; 11 with G101V mutation; assay type: cell-based; conditions: about 72 hours incubation, medium with 5% FBS or 10% normal human serum, ATPlite luminescence
Method: Cell antiproliferation was assayed by PerkinElmer ATPlite™ Luminescence Assay System. Briefly, the various test cancer cell lines were plated at a density of about 1×10^4 cells per well in Costar 96-well plates, and were incubated with different concentrations of compounds for about 72 hours in medium supplemented with 5% FBS or 10% normal human serum (NHS). One lyophilized substrate solution vial was then reconstituted by adding 5 mL of substrate buffer solution, and was agitated gently until the solution was homogeneous. About 50 μL of mammalian cell lysis solution was added to 100 μL of cell suspension per well of a microplate, and the plate was shaken for about five minutes in an orbital shaker at ˜700 rpm. This procedure was used to lyse the cells and to stabilize the ATP. Next, 50 μL substrate solution was added to the wells and microplate was shaken for five minutes in an orbital shaker at ˜700 rpm. Finally, the luminescence was measured by a PerkinElmer TopCount® Microplate Scintillation Counter. Such assays, carried out with a range of doses of test compounds, allowed the determination of the cellular anti-antiproliferative IC50 of the compounds of the present invention.

Chain of Bcl-2 (P10415 whole entry): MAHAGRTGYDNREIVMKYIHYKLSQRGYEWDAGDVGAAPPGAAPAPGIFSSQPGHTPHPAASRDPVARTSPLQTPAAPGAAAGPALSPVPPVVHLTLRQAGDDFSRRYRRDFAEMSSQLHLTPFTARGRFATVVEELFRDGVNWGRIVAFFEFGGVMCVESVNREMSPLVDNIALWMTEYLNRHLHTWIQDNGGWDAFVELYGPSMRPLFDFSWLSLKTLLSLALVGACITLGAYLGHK

Row | SMILES | IC50 (Bcl-2) [nM] | IC50 [1] [nM]
1 | CC(C)c1ccccc1[C@@H]1CCCN1C1CC2(CCN(c3ccc(C(=O)NS(=O)(=O)c4ccc(NCC5CCOCC5)c([N+](=O)[O-])c4)c(N4c5cc6cc[nH]c6nc5O[C@@H]5COC[C@H]54)c3)CC2)C1 [Example 1, 2-[(11R,15S)-13,16-dioxa-2,4,10-triazatetracyclo[7.7.0.0^[3,7]0.0^[11,15]]hexadeca-1(9),2,5,7-tetraen-10-yl]-4-[2-[(2S)-2-(2-isopropylphenyl)pyrrolidin-1-yl]-7-azaspiro[3.5]nonan-7-yl]-N-[3-nitro-4-[(oxan-4-ylmethyl)amino]benzenesulfonyl]benzamide] | 0.1 | 5.1
2 | CC(C)c1ccccc1[C@@H]1CCCN1C1CC2(CCN(c3ccc(C(=O)NS(=O)(=O)c4ccc(NCC5CCOCC5)c([N+](=O)[O-])c4)c(N4c5cc6cc[nH]c6nc5O[C@H]5COC[C@@H]54)c3)CC2)C1 [Example 2, 2-[(11S,15R)-13,16-dioxa-2,4,10-triazatetracyclo[7.7.0.0^[3,7].0^[11,15]]hexadeca-1(9),2,5,7-tetraen-10-yl]-4-[2-[(2S)-2-(2-isopropylphenyl)pyrrolidin-1-yl]-7-azaspiro[3.5]nonan-7-yl]-N-[3-nitro-4-[(oxan-4-ylmethyl)amino]benzenesulfonyl]benzamide] | 0.22 | 66.7
3 | CC(C)c1ccccc1[C@@H]1CCCN1C1CC2(CCN(c3ccc(C(=O)NS(=O)(=O)c4ccc(NC[C@H]5CC[C@](C)(O)CC5)c([N+](=O)[O-])c4)c(N4c5cc6cc[nH]c6nc5O[C@@H]5COC[C@H]54)c3)CC2)C1 [Example 3-0A] | 0.16 | 5.6
4 | CC(C)c1ccccc1[C@@H]1CCCN1C1CC2(CCN(c3ccc(C(=O)NS(=O)(=O)c4ccc(NC[C@H]5CC[C@@](C)(O)CC5)c([N+](=O)[O-])c4)c(N4c5cc6cc[nH]c6nc5O[C@@H]5COC[C@H]54)c3)CC2)C1 [Example 3-0B] | 0.13 | 25
5 | N#Cc1ccccc1[C@@H]1CCCN1C1CC2(CCN(c3ccc(C(=O)NS(=O)(=O)c4ccc(NCC5CCOCC5)c([N+](=O)[O-])c4)c(N4c5cc6cc[nH]c6nc5O[C@@H]5COC[C@H]54)c3)CC2)C1 [Example 26, 4-{2-[(2S)-2-(2-cyanophenyl)pyrrolidin-1-yl]-7-azaspiro[3.5]nonan-7-yl}-2-[(11R,15S)-13,16-dioxa-2,4,10-triazatetracyclo[7.7.0.0^{3,7}.0^{11,15}]hexadeca-1(9),2,5,7-tetraen-10-yl]-N-{3-nitro-4-[(oxan-4-ylmethyl)amino]benzenesulfonyl}benzamide] | 0.7 | 
6 | O=C(NS(=O)(=O)c1ccc(NCC2CCOCC2)c([N+](=O)[O-])c1)c1ccc(N2CCC3(CC2)CC(N2CCC[C@H]2c2ccccc2NCC(F)(F)F)C3)cc1N1c2cc3cc[nH]c3nc2O[C@@H]2COC[C@H]21 [Example 27, 2-[(11R,15S)-13,16-dioxa-2,4,10-triazatetracyclo[7.7.0.0^{3,7}.0^{11,15}]hexadeca-1(9),2,5,7-tetraen-10-yl]-N-{3-nitro-4-[(oxan-4-ylmethyl)amino]benzenesulfonyl}-4-{2-[(2S)-2-{2-[(2,2,2-trifluoroethyl)amino]phenyl}pyrrolidin-1-yl]-7-azaspiro[3.5]nonan-7-yl}benzamide] | 1.2 | 
7 | CC(C)S(=O)(=O)c1ccccc1[C@@H]1CCCN1C1CC2(CCN(c3ccc(C(=O)NS(=O)(=O)c4ccc(NCC5CCOCC5)c([N+](=O)[O-])c4)c(N4c5cc6cc[nH]c6nc5O[C@@H]5COC[C@H]54)c3)CC2)C1 [Example 28, 2-[(11R,15S)-13,16-dioxa-2,4,10-triazatetracyclo[7.7.0.0^{3,7}.0^{11,15}]hexadeca-1(9),2,5,7-tetraen-10-yl]-N-{3-nitro-4-[(oxan-4-ylmethyl)amino]benzenesulfonyl}-4-{2-[(2S)-2-[2-(propane-2-sulfonyl)phenyl]pyrrolidin-1-yl]-7-azaspiro[3.5]nonan-7-yl}benzamide] | 31.2 | 
8 | CP(C)(=O)c1ccccc1[C@@H]1CCCN1C1CC2(CCN(c3ccc(C(=O)NS(=O)(=O)c4ccc(NCC5CCOCC5)c([N+](=O)[O-])c4)c(N4c5cc6cc[nH]c6nc5O[C@@H]5COC[C@H]54)c3)CC2)C1 [Example 29, 4-{2-[(2S)-2-[2-(dimethylphosphoryl)phenyl]pyrrolidin-1-yl]-7-azaspiro[3.5]nonan-7-yl}-2-[(11R,15S)-13,16-dioxa-2,4,10-triazatetracyclo[7.7.0.0^{3,7}.0^{11,15}]hexadeca-1(9),2,5,7-tetraen-10-yl]-N-{3-nitro-4-[(oxan-4-ylmethyl)amino]benzenesulfonyl}benzamide] | 1.39 | 
9 | NC(=O)c1ccccc1[C@@H]1CCCN1C1CC2(CCN(c3ccc(C(=O)NS(=O)(=O)c4ccc(NCC5CCOCC5)c([N+](=O)[O-])c4)c(N4c5cc6cc[nH]c6nc5O[C@@H]5COC[C@H]54)c3)CC2)C1 [Example 30, 4-{2-[(2S)-2-(2-carbamoylphenyl)pyrrolidin-1-yl]-7-azaspiro[3.5]nonan-7-yl}-2-[(11R,15S)-13,16-dioxa-2,4,10-triazatetracyclo[7.7.0.0^{3,7}.0^{11,15}]hexadeca-1(9),2,5,7-tetraen-10-yl]-N-{3-nitro-4-[(oxan-4-ylmethyl)amino]benzenesulfonyl}benzamide] | 15.8 | 
10 | CC1(C)C[C@@H](c2ccccc2[C@@H]2CCCN2C2CC3(CCN(c4ccc(C(=O)NS(=O)(=O)c5ccc(NCC6CCOCC6)c([N+](=O)[O-])c5)c(N5c6cc7cc[nH]c7nc6O[C@@H]6COC[C@H]65)c4)CC3)C2)CCO1 [Example 31, 4-{2-[(2S)-2-{2-[(4S)-2,2-dimethyloxan-4-yl]phenyl}pyrrolidin-1-yl]-7-azaspiro[3.5]nonan-7-yl}-2-[(11R,15S)-13,16-dioxa-2,4,10-triazatetracyclo[7.7.0.0^{3,7}.0^{11,15}]hexadeca-1(9),2,5,7-tetraen-10-yl]-N-{3-nitro-4-[(oxan-4-ylmethyl)amino]benzenesulfonyl}benzamide] | 30.7 | 
11 | CC1(C)C[C@H](c2ccccc2[C@@H]2CCCN2C2CC3(CCN(c4ccc(C(=O)NS(=O)(=O)c5ccc(NCC6CCOCC6)c([N+](=O)[O-])c5)c(N5c6cc7cc[nH]c7nc6O[C@@H]6COC[C@H]65)c4)CC3)C2)CCO1 [Example 32, 4-{2-[(2S)-2-{2-[(4R)-2,2-dimethyloxan-4-yl]phenyl}pyrrolidin-1-yl]-7-azaspiro[3.5]nonan-7-yl}-2-[(11R,15S)-13,16-dioxa-2,4,10-triazatetracyclo[7.7.0.0^{3,7}.0^{11,15}]hexadeca-1(9),2,5,7-tetraen-10-yl]-N-{3-nitro-4-[(oxan-4-ylmethyl)amino]benzenesulfonyl}benzamide] | 15.8 | 
12 | O=C(NS(=O)(=O)c1ccc(NCC2CCOCC2)c([N+](=O)[O-])c1)c1ccc(N2CCC3(CC2)CC(N2CCC[C@H]2c2cccc(Cl)c2)C3)cc1N1c2cc3cc[nH]c3nc2O[C@@H]2COC[C@H]21 [Example 33, 4-{2-[(2S)-2-(3-chlorophenyl)pyrrolidin-1-yl]-7-azaspiro[3.5]nonan-7-yl}-2-[(11R,15S)-13,16-dioxa-2,4,10-triazatetracyclo[7.7.0.0^{3,7}.0^{11,15}]hexadeca-1(9),2,5,7-tetraen-10-yl]-N-{3-nitro-4-[(oxan-4-ylmethyl)amino]benzenesulfonyl}benzamide] | 1.42 | 
13 | O=C(NS(=O)(=O)c1ccc(NCC2CCOCC2)c([N+](=O)[O-])c1)c1ccc(N2CCC3(CC2)CC(N2CCC[C@H]2c2ccc(Cl)cc2)C3)cc1N1c2cc3cc[nH]c3nc2O[C@@H]2COC[C@H]21 [Example 34, 4-{2-[(2S)-2-(4-chlorophenyl)pyrrolidin-1-yl]-7-azaspiro[3.5]nonan-7-yl}-2-[(11R,15S)-13,16-dioxa-2,4,10-triazatetracyclo[7.7.0.0^{3,7}.0^{11,15}]hexadeca-1(9),2,5,7-tetraen-10-yl]-N-{3-nitro-4-[(oxan-4-ylmethyl)amino]benzenesulfonyl}benzamide] | 3.5 | 
14 | CC(C)Cc1ccccc1[C@@H]1CCCN1C1CC2(CCN(c3ccc(C(=O)NS(=O)(=O)c4ccc(NCC5CCOCC5)c([N+](=O)[O-])c4)c(N4c5cc6cc[nH]c6nc5O[C@@H]5COC[C@H]54)c3)CC2)C1 [Example 35, 4-(2-((S)-2-(2-isobutylphenyl)pyrrolidin-1-yl)-7-azaspiro[3.5]nonan-7-yl)-N-((3-nitro-4-(((tetrahydro-2H-pyran-4-yl)methyl)amino)phenyl)sulfonyl)-2-((5aR,8aS)-5a,6,8,8a-tetrahydrofuro[3,4-b]pyrrolo[3′,2′:5,6]pyrido[3,2-e][1,4]oxazin-5(1H)-yl)benzamide] | 0.58 | 
